Source: patent publication US20180280326A1, “MEDICAMENT FOR PREVENTING OR INHIBITING ACUTE KIDNEY INJURY” (National Cerebral and Cardiovascular Center, priority 2015, published 2018)

Tests used:
[1] = tested on: AT2 receptor deficient mice, CDDP induced acute kidney injury; assay: CDDP induced acute kidney injury-inhibiting effects on AT2 receptor deficient mice; type: in vivo; conditions: male AT2 receptor deficient mice; CDDP 15 mg/kg i.p.; oral 30 mg/kg per day from 3 days before; 72 hours after CDDP
Description: To 8- to 12-week-old male AT2 receptor deficient mice (n=3 or 5 to 7), 15 mg/kg of cisplatin (CDDP, disease group) or 30 mL/kg of phosphate buffered saline (PBS, normal group) was intraperitoneally administered.
A 0.2 mg/mL aqueous solution of Compound C in 0.5% carboxymethylcellulose (CMC) was prepared and orally administered so that Compound C was at a dose of 30 mg/kg per day from 3 days before the start of the experiment, and the mice were subjected to the experiment. To the control group, the same dose of 0.5% CMC aqueous solution was administered.
At 72 hours after CDDP administration, incision in the abdomen was performed under sevoflurane anesthesia, and the whole blood was collected from the abdominal great vein using a syringe. The blood was centrifuged, and the supernatant (serum) was collected. The serum was stored at −20 to −80° C. Immediately before dissection, spot urine was collected from each mouse.
Using the measurement kits, urinary albumin (Alb) and urinary creatinine (Cr) were measured for the calculation of the urinary Alb/Cr ratio, and also blood urea nitrogen (BUN) was measured. The results are shown in FIG. 3 (urinary Alb/Cr ratio) and FIG. 4 (BUN).

human renal cells = conditions: LPS as an endotoxin acting on human renal cells; Non Patent Literature 6; cited from earlier work

Structure (SMILES) | inhibition of acute kidney injury caused by CDDP (urinary Alb/Cr ratio, FIG. 3; BUN, FIG. 4) [1] | level of IL-6 (human renal cells) | level of TNF-α (human renal cells)
CCN(CC)C(=O)[C@H](Cc1ccc(NC(=O)c2ccccc2)cc1)C(=O)NS(=O)(=O)c1ccc2ccccc2c1 [Compound C, (2S)-2-[4-(benzoylamino)benzyl]-N,N-diethyl-N′-(2-naphthylsulfonyl)malonamide] | not effective |  | 
CCCCOC(=O)NS(=O)(=O)c1sc(CC(C)C)cc1-c1ccc(Cn2ccnc2)cc1 [Example C21] |  | lowered | lowered
